Assay results published in patent US8278315B2, “Radiotherapy method using x-rays” (priority 2002, dated 2012).

What was measured:
[1] = DOX-treated patients; cited from earlier work
B-DNA = details: cited from earlier work
DOX-resistant cells = details: cited from earlier work
[2] = mouse studies, compared with DOX; cited from earlier work
neuroblastoma lines = assay: nuclear chemotherapy: ^77BrdC on neuroblastoma lines; assay type: cell-based
Protocol: An investigation of a method called “nuclear chemotherapy” was done many years previously at Sloan-Kettering Research Institute in New York, by Dr. Chia-Gee Wang and Dr. Lawrence Helson. The research was done using ^77BrdC, where ^77Br (half-life at 57 hours) would undergo a K-capture and deliver 10^6 or more Gy at a small distance. The […] of BrdC to BrdU can be blocked by the non-toxic H4U and therefore excluding BrdC from being incorporated into the DNA pool. Certain transformed cells, on the other hand, would make use of a more primitive kinase to bypass the H4U blockage, and incorporate BrdC to form BrdU. The ^77Br was made by adding an a particle to ^75As in a facility in the U.K. ^77Br was obtained in liquid solution, and ^77BrdC was made. […] The Auger electrons from the ^77BrdU delivered such a high dose of the DNA duplex that no cellular repair was possible.

[3] = loss of UV absorbance at 260 nm after X-rays from a silver target; assay type: physicochemical; details: 20 μg/ml, per 100 Rads
From the text: The phenanthroline groups on Dichlorotris(1,10-phenanthroline) ruthenium (II) hydrate absorb in the UV region with a peak absorbance at or near 260 nm. Loss or damage to these groups can be estimated by determining the UV absorbance before and after treatment with X-rays generated by a silver target which is optimum for Ru. Over several experiments replicating treatments with 100 Rad or using increasing amounts of X-rays between 50 Rads and 1000 Rads a loss of UV absorbance at 260 nm of 0.5% to 1% per 100 Rads has been determined.

Compound: COc1cccc2c1C(=O)c1c(O)c3c(c(O)c1C2=O)C[C@@](O)(C(=O)CO)C[C@@H]3O[C@H]1C[C@H](N)[C@H](O)[C@H](C)O1 [DOX, doxorubicin]
- frequency of relapse [1]: ≤ 50%

Compound: [Cl2(Me2SO)4Ru] [trans-form]
- rate of DNA binding (B-DNA; compared with the cis-form): binds more rapidly

Compound: C[C@@H]1O[C@@H](O[C@H]2C[C@](O)(C(=O)CO)Cc3c(O)c4c(c(O)c32)C(=O)c2ccccc2C4=O)[C@H](I)[C@H](O)[C@H]1O [ANN, annamycin]
- cross resistance (DOX-resistant cells): lack of cross resistance
- cardiotoxicity [2]: less cardiotoxic

Compound: Nc1nc(=O)n(C2CC(O)C(CO)O2)cc1[77Br] (stereo not drawn) [^77BrdC]
- effect on sensitive tumor lines (neuroblastoma lines; sensitive lines, no immediate cell death): stopped mitosis
- sensitivity of neuroblastoma lines (neuroblastoma lines; ten neuroblastoma lines tested, H4U blockage): two of the ten lines were sensitive

Compound: CS(C)=O.CS(C)=O.CS(C)=O.CS(C)=O.[Cl][Ru][Cl] [cis-form of [Cl2(Me2SO)4Ru], [Cl2(Me2SO)4Ru]]
- effect on conformation of B-DNA (B-DNA): does not significantly affect the conformation of B-DNA
- effect on thermal stability of B-DNA (B-DNA): increases its thermal stability

Compound: O.[Cl][Ru][Cl].c1cnc2c(c1)ccc1cccnc12.c1cnc2c(c1)ccc1cccnc12.c1cnc2c(c1)ccc1cccnc12 [Dichlorotris(1,10-phenanthroline) ruthenium (II) hydrate]
- phenanthroline groups damaged [3]: ~10^14 per ml
